Values quoted from earlier work as cited in PMC8781228 (Bioorganic & medicinal chemistry letters, 2017).
pEC50: −log10 of the molar value.

What was measured:
S1PR2 [1] = conditions: read-out: EC50 (allosteric S1PR2 selective agonist)
S1PR2 [2] = conditions: [33P]S1P competitive binding assay
S1PR2 [3] = conditions: [γ-35S]GTPγS binding assay
S1PR1 = conditions: [γ-35S]GTPγS binding assay
S1PR3 = conditions: [γ-35S]GTPγS binding assay
S1PR4 = conditions: [γ-35S]GTPγS binding assay
S1PR5 = conditions: [γ-35S]GTPγS binding assay

Compound: Cc1cc(C(=O)Cn2cc(C#N)ccc2=O)c(C)n1Cc1ccccc1 [CYM-5520]
- pEC50 (S1PR2 [1]): 6.32
- competition with S1P (S1PR2 [2]): not competitive with S1P

Compound: CCCCCCCCc1ccc(CCC(N)(CO)CO)cc1 [FTY720, fingolimod]
- activity at S1PR2 (S1PR2 [3]): inactive
- activity at S1PR1 (S1PR1): potent agonist
- activity at S1PR3 (S1PR3): potent agonist
- activity at S1PR4 (S1PR4): potent agonist
- activity at S1PR5 (S1PR5): potent agonist
